Test results: patent US20110251194A1, “ANTINEOPLASTIC DERIVATIVES, PREPARATION THEREOF AND THERAPEUTIC USE THEREOF” (SANOFI-AVENTIS, priority 2008, published 2011)

How the values were obtained:
[1] = test system: HCT116 tumour line (ref. ATCC-CCL247); assay: MTS proliferation and cell viability test on the HCT116 tumour line; format: cell-based; settings: Homo sapiens, HCT-116, incubation of the tested compound for 72 h, 50% loss of proliferation and of cell viability
Experimental: The proliferation and the cell viability were determined in a test using 3-(4,5-dimethylthiazol-2-yl)-5-(3-carboxymethoxyphenyl)-2-(4-sulfophenyl)-2H-tetrazolium (MTS) according to Fujishita T. et al. Oncology 2003, 64(4), 399-406 (see page 401). In this test, the mitochondrial capacity of the living cells for converting the MTS into a coloured compound, after incubation of the tested compound for 72 h, is measured. IC50 (nM) denotes the concentration of compound which results in a 50% loss of proliferation and of cell viability.
The compounds of Table I were the subject of in vitro experimental tests on the HCT116 tumour line (ref. ATCC-CCL247).

| SMILES | IC50 [1] [nM] | melting point [°C] |
| --- | --- | --- |
| CCn1c(N)c(C(=O)NC)c(=O)c2ccc(-c3ccc(NC(=O)/C=C/c4cccnc4)cc3)nc21 [No. 7, 2-Amino-1-ethyl-4-oxo-7-[4-((E)-3-pyridin-3-yl-acryloylamino)phenyl]-1,4-dihydro[1,8]naphthyridine-3-carboxylic acid methylamide] | 2 | – |
| CCn1c(N)c(C(=O)NC)c(=O)c2ccc(-c3ccc(NC(=O)NCc4cccnc4)cc3)cc21 [No. 27, 2-Amino-1-ethyl-4-oxo-7-[4-(3-pyridin-3-ylmethylureido)phenyl]-1,4-dihydroquinoline-3-carboxylic acid methylamide] | 0.1 | – |
| CCn1c(NCCN2CCN(C)CC2)c(C(=O)NCCN2CCN(C)CC2)c(=O)c2ccc(-c3ccc(NC(=O)NCc4cccnc4)cc3)nc21 [No. 46, 1-Ethyl-2-[2-(4-methyl-piperazin-1-yl)-ethylamino]-4-oxo-7-[4-(3-pyridin-3-ylmethylureido)phenyl]-1,4-dihydro[1,8]naphthyridine-3-carboxylic acid [2-(4-methylpiperazin-1-yl)ethyl]amide] | 1.9 | – |
| CCn1c(NCCN2CCCC2C)c(C(=O)NCCN2CCCC2C)c(=O)c2ccc(-c3ccc(NC(=O)NCc4cccnc4)cc3)nc21 (centres unmarked) [No. 57, 1-Ethyl-2-[2-(2-methyl-pyrrolidin-1-yl)-ethylamino]-4-oxo-7-[4-(3-pyridin-3-ylmethylureido)phenyl]-1,4-dihydro[1,8]naphthyridine-3-carboxylic acid [2-(2-methylpyrrolidin-1-yl)ethyl]amide] | 0.26 | – |
| CCn1c(NCC2CCCO2)c(C(=O)NCC2CCCO2)c(=O)c2ccc(-c3ccc(NC(=O)NCc4cccnc4)cc3)cc21 (centres unmarked) [No. 59, 1-Ethyl-4-oxo-7-[4-(3-pyridin-3-ylmethylureido)phenyl]-2-[(tetrahydrofuran-2-ylmethyl)amino]-1,4-dihydroquinoline-3-carboxylic acid (tetrahydrofuran-2-ylmethyl)amide] | 0.47 | – |
| CCn1c(NCCN(C(C)C)C(C)C)c(C(=O)NCCN(C(C)C)C(C)C)c(=O)c2ccc(-c3ccc(NC(=O)NCc4cccnc4)cc3)cc21 [No. 60, 2-(2-Diisopropylaminoethylamino)-1-ethyl-4-oxo-7-[4-(3-pyridin-3-ylmethylureido)phenyl]-1,4-dihydroquinoline-3-carboxylic acid (2-diisopropylaminoethyl)amide] | 0.1 | – |
| CCn1c(NCCN2CCCC2)c(C(=O)NCCN2CCCC2)c(=O)c2ccc(-c3ccc(NC(=O)NCc4cccnc4)cc3)cc21 [No. 61, 1-Ethyl-4-oxo-7-[4-(3-pyridin-3-ylmethylureido)phenyl]-2-(2-pyrrolidin-1-ylethylamino)-1,4-dihydroquinoline-3-carboxylic acid (2-pyrrolidin-1-ylethyl)amide] | 0.1 | – |

More lines, now with the values ahead:

| IC50 [1] [nM] | melting point [°C] | SMILES |
| --- | --- | --- |
| 0.2 to 0.5 | – | CCn1c(N)c(C(=O)NC)c(=O)c2ccc(-c3ccc(NC(=O)NCc4cccnc4)cc3)nc21 [No. 1, 2-Amino-1-ethyl-4-oxo-7-[4-(3-pyridin-3-ylmethylureido)phenyl]-1,4-dihydro[1,8]naphthyridine-3-carboxylic acid methylamide] |
| < 1 | – | CCOC(=O)c1c(N)n(CC)c2nc(-c3ccc(NC(=O)NCc4cccnc4)cc3)ccc2c1=O [No. 10, 2-Amino-1-ethyl-4-oxo-7-[4-(3-pyridin-3-ylmethylureido)phenyl]-1,4-dihydro[1,8]naphthyridine-3-carboxylic acid ethyl ester] |
| 6 | – | CCn1c(N)c(C(=O)O)c(=O)c2ccc(-c3ccc(NC(=O)NCc4cccnc4)cc3)nc21 [No. 13, 2-Amino-1-ethyl-4-oxo-7-[4-(3-pyridin-3-ylmethylureido)phenyl]-1,4-dihydro[1,8]naphthyridine-3-carboxylic acid] |
| 0.1 | 245 | CCn1c(N)c(C(=O)NCCN2CCOCC2)c(=O)c2ccc(-c3ccc(NC(=O)NCc4cccnc4)cc3)nc21 [No. 30, 2-Amino-1-ethyl-4-oxo-7-[4-(3-pyridin-3-ylmethylureido)phenyl]-1,4-dihydro[1,8]naphthyridine-3-carboxylic acid (2-morpholin-4-ylethyl)amide] |
| 6 | – | CCn1c(N)c(C(=O)NC)c(=O)c2cnc(-c3ccc(NC(=O)NCc4cccnc4)cc3)nc21 [No. 53, 7-Amino-8-ethyl-5-oxo-2-[4-(3-pyridin-3-ylmethylureido)phenyl]-5,8-dihydro-pyrido[2,3-d]pyrimidine-6-carboxylic acid methylamide] |
| 0.19 | – | CCn1c(N)c(C(N)=O)c(=O)c2ccc(-c3ccc(NC(=O)NCc4cccnc4)cc3)cc21 [No. 56, 2-Amino-1-ethyl-4-oxo-7-[4-(3-pyridin-3-ylmethylureido)phenyl]-1,4-dihydroquinoline-3-carboxylic acid amide] |
